US20230165792A1, “LIQUID FORMULATION AND PHARMACEUTICAL PRODUCT CONTAINING CILASTATIN” (Denka Company Limited, priority 2020, published 2023)
Like-named read-outs stand apart in the source and are kept apart here.

Tests used:
[1] = for Absorbance: 400 nm; for Cilastatin content: HPLC
Description: Then, the glass vial was sealed and heated at 80° C. for 4 hours (to obtain a nitrogen-purged, heated sample). The aqueous solution before heating and the two samples prepared above were measured for absorbance, which served as an index for the degree of coloration, and also analyzed by HPLC to confirm the content of cilastatin.
The analysis conditions are detailed below.
Absorbance Measurement Conditions:
Equipment: Hitachi U-3900
Optical path length: 1 cm
HPLC Analysis Conditions:
Detector: Ultraviolet absorptiometer (measurement wavelength: 216 nm)
Column: 1.7 μm octadecylsilylated silica gel column (Acquity BEH C18, produced by Waters), 2.1 mm I.D., 50 mm long
Column temperature: 40° C.
Mobile phase: 25 mM phosphate buffer containing 9.5% acetonitrile (pH 4.25)
Amount of sample injected: 5 μL (prepared to 100 μg/mL)
Retention time: Cilastatin (about 2.6 min.)

[2] = N2-purged headspace, heated 80° C. for 4 hours

CC1(C)C[C@@H]1C(=O)N/C(=C\CCCCSC[C@H](N)C(=O)O)C(=O)O [cilastatin sodium, (Z)-7-[[(R)-2-amino-2-carboxyethyl]thio]-2-[[[(S)-2,2-dimethylcyclopropyl]carbonyl]amino]-2-heptenoic acid]
appearance according to visual observation ([1]; 200 mg/mL aqueous solution): slightly yellow | pH at the time of preparation ([1]; 200 mg/mL aqueous solution): 6.79 | Absorbance [1, 2]: 0.166 | Cilastatin content [1, 2]: 99.15% | Absorbance ([1]; before heating, 200 mg/mL aqueous solution, optical path 1 cm): 0.040 | Cilastatin content ([1]; before heating): 98.99% | Absorbance ([1]; heated sample: sealed glass vial, 80° C. for 4 hours): 0.203 | content of cilastatin (after storage at 45° C.): decreased slightly | color of solution (after storage at 45° C. for 23 days): yellow | color of solution (after storage at 45° C. for 65 days): brown | color of solution (at the time of preparation, deionized water): slightly yellow
